These are literature values, as cited in patent publication US10689359B2, “Crystals of quinazoline derivative and preparation method therefor” (Xuanzhu Pharma Co., Ltd., priority 2015, dated 2020).

Details in all cases: cited from earlier work
The test system of one data set is HER2/4.
Data set [1] deals with erlotinib-resistant H1975 cell line.
Another data set has as its target EGFR (Homo sapiens, UniProt P00533).

Sequence of EGFR (P00533 25-1210): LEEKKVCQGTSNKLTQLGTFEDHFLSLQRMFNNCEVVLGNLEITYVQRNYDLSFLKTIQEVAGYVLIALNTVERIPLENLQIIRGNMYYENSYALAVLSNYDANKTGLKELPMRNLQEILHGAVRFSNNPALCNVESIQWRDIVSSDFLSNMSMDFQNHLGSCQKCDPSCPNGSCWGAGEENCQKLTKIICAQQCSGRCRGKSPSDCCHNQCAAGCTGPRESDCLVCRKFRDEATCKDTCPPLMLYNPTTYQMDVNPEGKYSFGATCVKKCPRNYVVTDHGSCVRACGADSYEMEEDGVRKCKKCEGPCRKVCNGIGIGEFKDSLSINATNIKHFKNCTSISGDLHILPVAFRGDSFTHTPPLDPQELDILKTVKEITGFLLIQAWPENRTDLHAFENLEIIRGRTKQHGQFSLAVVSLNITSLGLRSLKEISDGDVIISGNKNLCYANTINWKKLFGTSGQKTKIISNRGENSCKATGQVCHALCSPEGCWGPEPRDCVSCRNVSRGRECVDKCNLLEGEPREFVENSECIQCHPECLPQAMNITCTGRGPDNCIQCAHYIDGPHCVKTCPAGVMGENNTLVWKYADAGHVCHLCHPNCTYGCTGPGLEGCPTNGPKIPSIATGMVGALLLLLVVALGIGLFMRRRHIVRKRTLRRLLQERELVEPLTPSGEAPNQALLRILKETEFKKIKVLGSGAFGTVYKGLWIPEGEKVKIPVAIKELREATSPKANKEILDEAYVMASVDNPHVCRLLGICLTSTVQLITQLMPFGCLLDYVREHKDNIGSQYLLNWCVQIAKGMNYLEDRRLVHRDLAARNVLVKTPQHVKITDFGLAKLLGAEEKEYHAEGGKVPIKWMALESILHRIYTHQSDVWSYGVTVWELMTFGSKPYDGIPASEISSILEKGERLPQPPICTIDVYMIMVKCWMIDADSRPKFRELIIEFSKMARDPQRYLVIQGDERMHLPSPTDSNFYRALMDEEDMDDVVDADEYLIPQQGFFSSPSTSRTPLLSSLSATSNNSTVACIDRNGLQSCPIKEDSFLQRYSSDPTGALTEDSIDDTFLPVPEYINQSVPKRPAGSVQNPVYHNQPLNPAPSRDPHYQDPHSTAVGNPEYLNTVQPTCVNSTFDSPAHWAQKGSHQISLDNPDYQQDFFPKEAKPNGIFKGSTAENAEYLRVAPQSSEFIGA

Consider `C=CC(=O)Nc1cc2c(Nc3ccc(F)c(Cl)c3)ncnc2cc1OCC1CC2(CCN(C)CC2)C1` [Formula (I), N-(4-((3-chloro-4-fluorophenyl)amino)-7-((7-methyl-7-azaspiro[3.5]nonan-2-yl)methoxy)quinazolin-6-yl)acrylamide], for which, in the data set with HER2/4, the “Inhibition of HER2/4” value is “inhibitory effect”. Also, the “Inhibition of erlotinib-resistant H1975 cell line” value in data set [1] was “significantly inhibitory effect”. Moreover, on EGFR, the “Inhibition of EGFR” value is given as “effectively inhibit”.
